# Assay results published in patent publication US9795694B2, “Imaging beta-amyloid peptides aggregation” (Hong Kong Baptist University, priority 2014, dated 2017).
# “Also recorded” adds a separate entry of the source.
# Tests used:
# SH-SY5Y neuronal cell [1] = test: MTT reduction assay, cytotoxicity
# Description: Human neuroblastoma SH-SY5Y neuronal cells were incubated with different concentrations of SLCOOH-conjugated SiO2@Fe3O4 nanoparticles at 37° C. for 24 h.
# Aβ plaques = test: Aβ plaque targeting in brain, co-stained with ThT or Aβ antibody; type: in vivo, transgenic mice; conditions: brain slides co-stained with ThT or Aβ antibody with DAB stain
# Source text: (§1) However, in order for the observed neuroprotective effect to be clinically useful, these molecules need to be able to pass through the blood-brain barrier.
# (A) Differential Interference Contrast (DIC) image of the brain slice of a 12-month-old APP/PS1 Tg mouse. (B) Histological staining of the brain slice with SLCOOH-conjugated SiO2@Fe3O4 nanoparticles (λex=500 nm, λem=620-680 nm). (C) ThT fluorescence images of the brain slice captured with λex=405 nm, λem=460-490 nm (D) The superimposed images of (B) and (C).
# [2] = Blood-brain barrier penetration after tail vein injection; type: in vivo; conditions: mice
# Source text: as §1
# [3] = biological target: T1, Aβ (1-40) peptide aggregation / fibril formation (Homo sapiens, UniProt P05067); test: TIRFM study of inhibition of Aβ fibril formation; type: biochemical; conditions: for inhibition of Aβ peptide aggregation and fibril growth: TIRFM, ThT dye excited at 445 nm
# T1 construct: Aβ(1-40) fibrils prepared from Aβ40 with seed incubated at 37° C. for an hour in buffer
# Source text: These images were obtained by an addition of ThT dye excited at 445 nm.
# The panels below show the images of seed only and Aβ fibril formation without the carbazole-based fluorophore for comparison. These images were obtained by an addition of ThT dye excited at 445 nm.
# A novel series of water-soluble carbazole-based fluorophores has been designed and developed. […] Upon binding with Aβ peptides, there is about 8- to about 82-fold increase in fluorescence intensity concomitant with the substantial blue shifts (Δλ=14-22 nm) in the emission spectra of the fluorophores (FIG. 2A-2H). […] (e.g. Ffibril/FSLOH=81.5 vs. Fpeptide/FSLOH=6.3). Because of such strong increase in fluorescence, the signal-to-noise ratio is so high that imaging of single fibrils is possible. (FIG. 3A-3C) Compared to common commercial labeling dyes for Aβ such as Thioflavin-T and Congo Red, the carbazole-based fluorophores of the present invention provide an advantage of a wide range of excitation and emission tuning in visible to infra-red region (FIG. 4A-4B). Some of these molecules, e.g., SAM and SAOH, even emit at ˜[…] (FIG. 5A-5B), which can potentially be used for near infra-red fluorescence imaging. In addition to fluorescence titration, the binding of Aβ peptide and fibril with the carbazole-based fluorophores of the present invention were further confirmed by circular dichroism spectroscopy (FIG. 6A-6B), and electrospray ionization-mass spectrometry (ESI-MS). Total Internal Reflection Fluorescence Microscope (TIRFM) technique developed by us was used to investigate the inhibition effects of these functional fluorophores on Aβ fibril formation (FIG. 7A-7F). […] Such inhibitory effect was further confirmed by Transmission Electron Microscopy (TEM) study (FIG. 8A-8B).
# The inhibitory effect of the carbazole-based fluorophores of the present invention on Aβ fibril growth was further investigated by measuring the (average) length of the Aβ fibrils formed after incubation of the Aβ monomers for 60 min with additions of SLOH at different time points during this period (FIG. 9A-9B). Parallel experiments conducted without any addition of SLOH were used as controls.
# Total Internal Reflection Fluorescence Microscope (TIRFM) technique developed was used to investigate the inhibition effects of these functional fluorophores on Aβ (1-40) fibril formation (FIG. 17).
# [4] = Fluorescence spectra in phosphate buffer solution; type: physicochemical
# Source text: (§2) A novel series of water-soluble carbazole-based fluorophores has been designed and developed. […] Upon binding with Aβ peptides, there is about 8- to about 82-fold increase in fluorescence intensity concomitant with the substantial blue shifts (Δλ=14-22 nm) in the emission spectra of the fluorophores (FIG. 2A-2H). […] (e.g. Ffibril/FSLOH=81.5 vs. Fpeptide/FSLOH=6.3). Because of such strong increase in fluorescence, the signal-to-noise ratio is so high that imaging of single fibrils is possible. (FIG. 3A-3C) Compared to common commercial labeling dyes for Aβ such as Thioflavin-T and Congo Red, the carbazole-based fluorophores of the present invention provide an advantage of a wide range of excitation and emission tuning in visible to infra-red region (FIG. 4A-4B). Some of these molecules, e.g., SAM and SAOH, even emit at ˜[…] (FIG. 5A-5B), which can potentially be used for near infra-red fluorescence imaging. In addition to fluorescence titration, the binding of Aβ peptide and fibril with the carbazole-based fluorophores of the present invention were further confirmed by circular dichroism spectroscopy (FIG. 6A-6B), and electrospray ionization-mass spectrometry (ESI-MS). Total Internal Reflection Fluorescence Microscope (TIRFM) technique developed by us was used to investigate the inhibition effects of these functional fluorophores on Aβ fibril formation (FIG. 7A-7F). […]
# [5] = tested on: ROS in primary cortical cells; test: Reduction of ROS induced by Aβ species; type: cell-based
# Source text: (§3) The reactive oxygen species (ROS) induced by the Aβ toxicity causes much damage in AD.
# [6] = tested on: primary cortical neural cells; test: Protection from Aβ-induced cytotoxicity; type: cell-based; conditions: Aβ monomer, oligomers and fibrils
# Source text: as §3
# Aβ(1-40) fibrils = biological target: T2, Aβ(1-40) fibrils (Homo sapiens, UniProt P05067); test: Fluorescence titration of the fluorophores with Aβ fibrils; type: binding
# T2 construct: Aβ(1-40) fibrils prepared from Aβ40 with seed incubated at 37° C. for an hour in buffer
# Source text: as §2
# [7] = tested on: Aβ(1-40) and Aβ(1-42) peptides; test: Fluorescence titration of the fluorophores with Aβ peptides; type: binding; conditions: Aβ peptide
# Source text: as §2
# SH-SY5Y neuronal cell [8] = test: Protection of neuronal cells from Aβ oligomer and fibril toxicity; type: cell-based, Human; conditions: incubated for 2 and 6 hours
# T1 sequence (P05067 672-711): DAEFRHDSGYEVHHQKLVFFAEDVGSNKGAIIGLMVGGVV
# T2 sequence (P05067 672-711): as above
SMILES,toxicity (in words) (SH-SY5Y neuronal cell [1]),targeting of / selectivity towards Aβ plaques in brain (Aβ plaques),ability to penetrate the blood-brain barrier [2],inhibition of Aβ peptide aggregation and fibril growth [3],other results
"COCCOCCn1c2ccccc2c2cc(/C=C/c3cc[n+](CC(=O)O)c4ccccc34)ccc21.[Br-] [SLCOOH, (E)-1-(carboxymethyl)-4-(2-(9-(2-(2-methoxyethoxy)ethyl)-9H-carbazol-3-yl)vinyl)quinolin-1-ium bromide]",non-toxic,able to target the Aβ species in-vivo with high affinity,BBB penetrable,–,–
"COCCOCCn1c2ccccc2c2cc(/C=C/c3cc[n+](CCCO)c4ccccc34)ccc21 [SLOH-Pr, (E)-1-(3-hydroxypropyl)-4-(2-(9-(2-(2-methoxyethoxy)ethyl)-9H-carbazol-3-yl)vinyl)-quinolinium bromide]",–,–,–,inhibit Aβ peptide aggregation and prevent fibril growth,–
"COCCOCCn1c2ccccc2c2cc(/C=C/c3c4ccccc4[n+](C)c4ccccc34)ccc21.[I-] [SAM, (E)-9-(2-(9-(2-(2-methoxyethoxy)ethyl)-9H-carbazol-3-yl)vinyl)-10-methylacridinium iodide]",–,–,–,inhibit Aβ peptide aggregation and prevent fibril growth,emission wavelength [4]: ~760 nm
"COCCOCCn1c2ccc(F)cc2c2cc(/C=C/c3cc[n+](CCO)c4ccccc34)ccc21 [F-SLOH, (E)-4-(2-(6-Fluoro-9-(2-(2-methoxyethoxy)ethyl)-9H-carbazol-3-yl)vinyl)-1-(2-hydroxyethyl)quinolin-1-ium chloride]",non-toxic,target the Aβ plaques,show blood-brain permeability; also recorded: ability to cross the blood-brain barrier,inhibit Aβpeptide aggregation and prevent fibril growth; also recorded: inhibit Aβ (1-40) peptide aggregation and prevent fibril growth; also recorded: potent Aβ aggregation inhibitors,reduction of ROS induced by the Aβ species [5]: reduce the ROS induced by the Aβ species; protection from the neurotoxic effects of the Aβ species [6]: protected from the neurotoxic effects of the Aβ species; also recorded: protective effect against the neurotoxic activities of the Aβ oligomers and fibrils
"COCCOCCn1c2ccccc2c2cc(/C=C/c3cc[n+](CC(N)=O)c4ccccc34)ccc21 [SLAD, (E)-1-(2-Amino-2-oxoethyl)-4-(2-(9-(2-(2-methoxyethoxy)ethyl)-9H-carbazol-3-yl)vinyl)quinolin-1-ium bromide]",non-toxic,target the Aβ plaques; also recorded: colocalization of fluorescence signals of SLAD and Aβ antibody,show blood-brain permeability; also recorded: ability to cross the blood-brain barrier,inhibit Aβpeptide aggregation and prevent fibril growth; also recorded: inhibit Aβ (1-40) peptide aggregation and prevent fibril growth; also recorded: potent Aβ aggregation inhibitors,reduction of ROS induced by the Aβ species [5]: reduce the ROS induced by the Aβ species; protection from the neurotoxic effects of the Aβ species [6]: protected from the neurotoxic effects of the Aβ species; also recorded: protective effect against the neurotoxic activities of the Aβ oligomers and fibrils
"COCCOCCn1c2ccccc2c2cc(/C=C/c3cc[n+](CCOCCOC)c4ccccc34)ccc21 [SLG, (E)-1-(2-(2-methoxyethoxy)ethyl)-4-(2-(9-(2-(2-methoxyethoxy)ethyl)-9H-carbazol-3-yl)vinyl)quinolinium iodide]",–,–,show blood-brain permeability,inhibit Aβpeptide aggregation and prevent fibril growth; also recorded: inhibit Aβ (1-40) peptide aggregation and prevent fibril growth,–
"COCCOCCn1c2ccccc2c2cc(/C=C/c3cc[n+](CCO)c4ccccc34)ccc21 [SLOH, (E)-1-(2-hydroxyethyl)-4-(2-(9-(2-(2-methoxyethoxy)ethyl)-9H-carbazol-3-yl)vinyl)-quinolinium chloride]",non-toxic,colocalization of fluorescence signals of SLOH and ThT; also recorded: colocalization of fluorescence signals of SLOH and Aβ antibody; also recorded: selectivity of SLOH towards Aβ plaques,–,inhibition of Aβ fibril formation; also recorded: inhibit Aβ peptide aggregation and prevent fibril growth; also recorded: potent inhibitor of Aβ aggregation,Ffibril/FSLOH fluorescence enhancement (Aβ(1-40) fibrils): 81.5; Fpeptide/FSLOH fluorescence enhancement [7]: 6.3; protection from the neurotoxic effects of Aβ oligomers and fibrils (SH-SY5Y neuronal cell [8]): protected from the neurotoxic effects of the Aβ oligomers and fibrils; also recorded: protective effect against the neurotoxic activities of the Aβ oligomers and fibrils; Aβ fibril growth (average fibril length) on addition of the compound ([3]; 50 μM added at different time points within 60 min incubation of Aβ monomer): strongly arrests its fibril growth
"Cn1c2ccccc2c2cc(/C=C/c3cc[n+](C)c4ccccc34)ccc21 [Me-SLM, (E)-1-methyl-4-(2-(9-methyl-9H-carbazol-3-yl)vinyl)quinolinium iodide]",–,–,–,inhibit Aβ peptide aggregation and prevent fibril growth,–
"CC[n+]1ccc(/C=C/c2ccc3c(c2)c2ccccc2n3CCOCCOC)c2ccccc21 [SLE, (E)-1-ethyl-4-(2-(9-(2-(2-methoxyethoxy)ethyl)-9H-carbazol-3-yl)vinyl)quinolinium bromide]",–,–,–,inhibit Aβ peptide aggregation and prevent fibril growth,–
"COCCOCCn1c2ccccc2c2cc(/C=C/c3c4ccccc4[n+](CCO)c4ccccc34)ccc21.[I-] [SAOH, (E)-10-(2-hydroxyethyl)-9-(2-(9-(2-(2-methoxyethoxy)ethyl)-9H-carbazol-3-yl)vinyl)-acridinium iodide]",non-toxic,–,–,inhibition of Aβ fibril formation; also recorded: inhibit Aβ peptide aggregation and prevent fibril growth; also recorded: potent inhibitor of Aβ aggregation,emission wavelength [4]: ~760 nm; protection from the neurotoxic effects of Aβ oligomers and fibrils (SH-SY5Y neuronal cell [8]): protected from the neurotoxic effects of the Aβ oligomers and fibrils; also recorded: protective effect against the neurotoxic activities of the Aβ oligomers and fibrils
"CCOC(=O)C[n+]1ccc(/C=C/c2ccc3c(c2)c2ccccc2n3CCOCCOC)c2ccccc21 [SLAce, (E)-1-(2-Ethoxy-2-oxoethyl)-4-(2-(9-(2-(2-methoxyethoxy)ethyl)-9H-carbazol-3-yl)vinyl)quinolin-1-ium bromide]",–,–,show blood-brain permeability,inhibit Aβpeptide aggregation and prevent fibril growth; also recorded: inhibit Aβ (1-40) peptide aggregation and prevent fibril growth,–
